Assay results from ChEMBL document CHEMBL2434841, “Computational neural network analysis of the affinity of 2-pyridyl-3,5-diaryl pyrroles analogs for the human glucagon receptor using density functional theory” (Med Chem Res, 2013).
pIC50: −log10 of the molar value.

The molecules below were run against Glucagon receptor (Homo sapiens, UniProt P47871) (assay: Antagonist activity at human glucagon receptor).
Sequence of Glucagon receptor (P47871 whole entry): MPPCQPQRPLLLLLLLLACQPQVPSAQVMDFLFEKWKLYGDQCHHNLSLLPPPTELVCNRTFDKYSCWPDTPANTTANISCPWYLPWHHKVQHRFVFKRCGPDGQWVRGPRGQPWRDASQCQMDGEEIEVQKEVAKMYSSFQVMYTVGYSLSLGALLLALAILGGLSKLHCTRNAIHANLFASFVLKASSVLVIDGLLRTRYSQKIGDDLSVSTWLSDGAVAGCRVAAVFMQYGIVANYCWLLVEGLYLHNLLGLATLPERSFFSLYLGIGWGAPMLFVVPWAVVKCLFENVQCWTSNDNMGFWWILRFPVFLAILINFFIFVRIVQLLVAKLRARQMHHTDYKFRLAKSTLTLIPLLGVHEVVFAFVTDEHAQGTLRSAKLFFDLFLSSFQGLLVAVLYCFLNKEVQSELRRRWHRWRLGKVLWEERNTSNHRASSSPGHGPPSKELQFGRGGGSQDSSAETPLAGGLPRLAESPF

First: COc1ccc(-c2cc(-c3ccc(Cl)cc3)[nH]c2-c2ccncc2)cc1
Second: COc1ccc(-c2cc(-c3ccc(F)cc3)c(-c3ccncc3)[nH]2)cc1
The pIC50 of the first is 0.39 log units higher: 5.94 for the first, 5.55 for the second.

Going from `CCCOc1ccccc1-c1cc(-c2ccc(Cl)cc2)[nH]c1-c1ccncc1` to `CCOc1ccccc1-c1cc(-c2ccc(Cl)cc2)[nH]c1-c1ccncc1`, the pIC50 falls from 5.55 to 4.85 (0.70 log units). The first is the more potent here.

Compared with `Fc1ccc(-c2cc(-c3ccc(F)cc3)c(-c3ccncc3)[nH]2)cc1`, `Nc1ccc(-c2cc(-c3ccc(F)cc3)c(-c3ccncc3)[nH]2)cc1` is 0.25 log units higher in pIC50: 6.47 for the first, 6.72 for the second.

Compared with `COc1cccc(-c2cc(-c3ccc(Cl)cc3)[nH]c2-c2ccncc2)c1`, `Clc1ccc(-c2cc(-c3cccc(Br)c3)c(-c3ccncc3)[nH]2)cc1` is 0.72 log units higher in pIC50: 6.38 for the first, 7.10 for the second. The second is the more potent here.

Going from `C=CCOc1ccccc1-c1cc(-c2ccc(Cl)cc2)[nH]c1-c1ccncc1` to `COc1ccccc1-c1cc(-c2ccc(Cl)cc2)[nH]c1-c1ccncc1`, the pIC50 rises from 5.32 to 5.58 (0.26 log units). The second is the more potent here.

Compared with `Fc1ccc(-c2cc(-c3ccccc3)[nH]c2-c2ccncc2)cc1`, `Clc1ccc(-c2cc(-c3ccccc3)c(-c3ccncc3)[nH]2)cc1` is 0.58 log units higher in pIC50: 6.10 for the first, 6.68 for the second.

First: N#Cc1ccc(-c2cc(-c3ccc(F)cc3)c(-c3ccncc3)[nH]2)cc1
Second: Cc1ccc(-c2cc(-c3ccc(F)cc3)c(-c3ccncc3)[nH]2)cc1
The pIC50 of the first is 1.53 log units higher: 7.30 for the first, 5.77 for the second.

Compared with `Clc1ccc(-c2cc(-c3ccc(Br)cc3)c(-c3ccncc3)[nH]2)cc1`, `Clc1ccc(-c2cc(-c3ccc(Cl)cc3)c(-c3ccncc3)[nH]2)cc1` is 0.27 log units higher in pIC50: 6.52 for the first, 6.79 for the second. The second is the more potent here.

`CCc1ccc(-c2cc(-c3ccc(F)cc3)c(-c3ccncc3)[nH]2)cc1` and `Fc1ccc(-c2cc(-c3ccc(Cl)cc3)[nH]c2-c2ccncc2)cc1` are within 0.2 log units of each other in pIC50: 5.87 for the first, 5.85 for the second.

`Fc1ccc(-c2cc(-c3cccc(Cl)c3)[nH]c2-c2ccncc2)cc1` and `Fc1ccc(-c2cc(-c3ccc(Cl)cc3Cl)[nH]c2-c2ccncc2)cc1` are the same in pIC50: 6.38 for the first, 6.38 for the second.

Compared with `Fc1ccc(-c2cc[nH]c2-c2ccncc2)cc1`, `Cc1cc(-c2ccc(F)cc2)c(-c2ccncc2)[nH]1` is 0.30 log units lower in pIC50: 6.79 for the first, 6.49 for the second. The first is the more potent here.

First: O=[N+]([O-])c1ccc(-c2cc(-c3ccc(F)cc3)c(-c3ccncc3)[nH]2)cc1
Second: O=C(O)c1ccc(-c2cc(-c3ccc(F)cc3)c(-c3ccncc3)[nH]2)cc1
The pIC50 of the first is 0.26 log units higher: 7.30 for the first, 7.04 for the second.

Going from `CCOC(=O)c1ccc(-c2cc(-c3ccc(F)cc3)c(-c3ccncc3)[nH]2)cc1` to `CSc1ccc(-c2cc(-c3ccncc3)c(-c3ccc(F)cc3)[nH]2)cc1`, the pIC50 rises from 6.58 to 7.36 (0.78 log units).

Compared with `C[S+]([O-])c1ccc(C2=NC(c3ccncc3)=C(c3ccc(F)cc3)C2)cc1` (stereo not drawn), `CSc1ccc(C2=NC(c3ccncc3)=C(c3ccc(F)cc3)C2)cc1` is 0.26 log units lower in pIC50: 6.17 for the first, 5.91 for the second. The first is the more potent here.

Going from `CC(C)COc1ccccc1-c1cc(-c2ccc(Cl)cc2)[nH]c1-c1ccncc1` to `Clc1ccc(-c2cc(-c3ccccc3Br)c(-c3ccncc3)[nH]2)cc1`, the pIC50 rises from 5.42 to 6.00 (0.58 log units).

Compared with `Fc1ccc(-c2cc(C3CCCCC3)[nH]c2-c2ccncc2)cc1`, `C[S+]([O-])c1ccc(-c2cc(-c3ccncc3)c(-c3ccc(F)cc3)[nH]2)cc1` (stereo not drawn) is 1.54 log units higher in pIC50: 6.74 for the first, 8.28 for the second.

`CCCOc1ccc(Br)cc1-c1cc(-c2ccc(Cl)cc2)[nH]c1-c1ccncc1` showed a pIC50 of 5.84.
